Assay results taken from patent US10023587B2, “Oxabicycloheptanes and oxabicycloheptenes, their preparation and use” (LIXTE BIOTECHNOLOGY, INC., priority 2007, dated 2018).
Where two headings read alike, the source gives them in different places.

Assays:
[1] = tested on: HT-29 cells; assay: CellTiter-Glo assay, HT-29; type: cell-based; conditions: Homo sapiens; HT-29 Colon, 72 hr; read-out: IC50 (50% Inhibition of Proliferation)
Protocol: (§1) MDA-MB-231, HT-29, NCI-H460, NCI-H522, NCI-H69, GXF-209, HepG2, OVAR-3, PANC-1, DU-145, LNCAP, HL-60, K-562, and MOLT-4 cell lines were either obtained from the American Type Culture Collection (ATCC; Manassas, Va.), or from the National Cancer Institute (NCI; Frederick, Md.). RPMI-1640 media, L-glutamine dipeptide (HyQ SG-200), and HEPES were obtained from Hyclone (Logan, Utah).
(§2) All cell lines were routinely cultured twice weekly in RPMI-1640 medium supplemented with 2 mM L-glutamine dipeptide, 10 mM HEPES, and 10% FBS.
(§3) The adherent cell lines MDA-MB-231, HT-29, NCI-H460, NCI-H522, GXF-209, HepG2, OVAR-3, PANC-1, DU-145, and LNCAP cells were each seeded into two 96-well plates at 2,500 cells per well in a total volume of 50 uL and incubated in a 37° C. humidified 5% CO2 cell culture incubator overnight. The suspension cell lines NCI-H69, HL-60, K-562, and MOLT-4 were each seeded into two 96-well plates at 10,000 cell per well in a total volume of 50 uL and incubated in a 37° C. humidified 5% CO2 incubator overnight.
(§4) This was followed by making 2× stocks of the final concentrations required in RPMI-1640 medium. […]
(§5) Briefly, plates were removed from the incubator and placed on the bench at room temperatures for 30 minutes. […] Luminescence was then recorded using the PerkinElmer Microbeta scintillation and luminescence counter (Trilux).

[2] = tested on: C. neoformans; assay: Antifungal susceptibility testing (broth dilution), C. neoformans; type: cell-based, Cryptococcus neoformans; conditions: for MIC: Cryptococcus neoformans, read-out: minimum inhibitory concentration (MIC)
Protocol: (§6) Anti-fungal testing was completed with a common lot for compounds 100 and 102.
(§7) A 10 mg portion of each powder was weighed out and added to 1 ml of sterile distilled water for compound 100 and DMSO for compound 102. The resulting concentration of […] was diluted to a working concentration of 640 μg/ml for each compound. All subsequent dilutions were also made using the respective diluents. Final testing concentrations ranged from 0.125-64 μg/ml.
(§8) A total of 23 isolates were tested to include 3 Candida albicans, 3 Candida glabrata, 3 Cryptococcus neoformans, 3 Aspergillus fumigatus, 3 Rhizopus oryzae, 3, Fusarium solani, 3 Pseudallescheria boydii, and 2 […] rubrum. All isolates were clinical isolates submitted to the Fungus Testing Laboratory for evaluation. Antifungal susceptibility testing was accomplished according to the methods outlined in the National Committee for Clinical Laboratory Standards, M-27A2, Reference Method for Broth Dilution Antifungal Susceptibility Testing of Yeasts; Approved Standard, and M38-A “Reference Method for Broth Dilution Antifungal Susceptibility Testing of Conidium-Forming Filamentous Fungi; Approved Standard”. This includes testing in RPMI-1640 with glutamine and without bicarbonate, an inoculum size of 0.5-2.5×10^3 for yeasts or 1-5×10^4 for moulds, and incubation at 35° C. for 24 and 48 hours.

[3] = tested on: P. boydii; assay: Antifungal susceptibility testing (broth dilution), P. boydii; type: cell-based, Pseudallescheria boydii; conditions: for MIC: Scedosporium boydii, read-out: minimum inhibitory concentration (MIC)
Protocol: as §6, §7, §8

[4] = tested on: OVCAR-3 cells; assay: CellTiter-Glo assay, OVCAR-3; type: cell-based; conditions: Homo sapiens; OVCAR-3 Ovary adenoca, 72 hr; read-out: IC50 (50% Inhibition of Proliferation)
Protocol: as §1, §2, §3, §4, §5

[5] = tested on: LNCAP cells; assay: CellTiter-Glo assay, LNCAP; type: cell-based; conditions: Homo sapiens; LNCAP Prostate, 72 hr; read-out: IC50 (50% Inhibition of Proliferation)
Protocol: as §1, §2, §3, §4, §5

[6] = tested on: DAOY cells; assay: DAOY xenograft tumor growth in SCID mice; type: in vivo; conditions: subcutaneous in SCID mice, ip daily for 20 days (FIG. 18)
Protocol: For in vivo experiments, subcutaneously implanted tumor cells are allowed to grow over 7 days to a size of 5-7 mm. On day 7, drug administration is begun ip daily for 20 days. The maximum perpendicular diameters of the tumor masses are measured every 2 to 5 days. On the 21st day after initiation of treatment, the animals are sacrificed and dissected free of the subcutaneous tissues and measured.

[7] = tested on: medulloblastoma cell line DAOY; assay: Inhibition of growth of medulloblastoma cell line DAOY; type: cell-based; conditions: over 7 days (FIG. 16)
Source text: For all cell culture experiments, cells are allowed to grow in the presence or absence of different concentrations of drug or in the presence of the vehicle used to dissolve the drug, PBS for compound 100 and DMSO for compound 102. Cell counts are done in triplicate on day 3 and day 7 and inhibition of growth is expressed as a percentage of the number of cells present in the experimental well divided by the number of cells in a control well.

[8] = Stability at acid pH; type: physicochemical
[9] = tested on: GBM cell line U373; assay: cells; type: cell-based, human; conditions: for Percent of Control, Observed: U373 (Table 4)
Protocol: To observe the effects Compound 100 in combination with retinoic acids, Compound 100 was combined with all-trans retinoic acid. […] The total number of cells is counted in the triplicate cultures at each dose and in controls after 7 days and the average number of cells and the standard deviation is determined.
The amount of inhibition of GBM cell growth is expressed as the proportion of the number of cells in the experimental dishes compared to the number of cells in control dishes containing only the drug vehicle and culture medium. The average percent of control is plotted and bracketed by one standard deviation calculated from the triplicate measurements.
Synergism (potentiation) of the inhibitory activity of two drugs in combination is said to be present when the percent survival in the presence of two drugs is less than the product of the percent survivals of the two drugs used alone at the same doses in the combination.

SMILES | IC50 [1] [µM] | minimum inhibitory concentration (MIC) ([2]; isolate 07-2737, 24 Hours) [µg/mL] | minimum inhibitory concentration (MIC) ([2]; isolate 07-2737, 48 Hours) [µg/mL] | minimum inhibitory concentration (MIC) ([2]; isolate 07-2829, 24 Hours) [µg/mL] | minimum inhibitory concentration (MIC) ([2]; isolate 07-2829, 48 Hours) [µg/mL] | minimum inhibitory concentration (MIC) ([3]; isolate 07-1502, 24 Hours) [µg/mL] | minimum inhibitory concentration (MIC) ([3]; isolate 07-1502, 48 Hours) [µg/mL] | minimum inhibitory concentration (MIC) ([3]; isolate 07-1601, 24 Hours) [µg/mL] | minimum inhibitory concentration (MIC) ([3]; isolate 07-1601, 48 Hours) [µg/mL] | IC50 [4] [µM] | IC50 [5] [nM] | Effect on DAOY xenograft tumor growth (in words) [6] | other results
CC(C)(C)OC(=O)N1CCN(C(=O)C2C(C(=O)O)[C@H]3CC[C@@H]2O3)CC1 (stereo in doubt) [Compound 102, 4-(3-Carboxy-7oxa-bicyclo[2.2.1]heptane-2-carbonyl)piperazine-1-carboxylic acid tert-butyl ester] | 3.6 | >64 | >64 | >64 | >64 | >64 | >64 | >64 | >64 | 5.1 | 480 | inhibit the proliferation | MIC ([2]; isolate 07-2665, 24 Hours): > 64 µg/mL; MIC ([2]; isolate 07-2665, 48 Hours): > 64 µg/mL; MIC ([3]; isolate 07-1333, 24 Hours): > 64 µg/mL; MIC ([3]; isolate 07-1333, 48 Hours): > 64 µg/mL
CN1CCN(C(=O)C2C(C(=O)O)[C@H]3CC[C@@H]2O3)CC1 (stereo partly shown) [Compound 100, Endothall 4-Methylpiperazine Monoamide] | 5.3 | >64 | >64 | >64 | >64 | >64 | >64 | >64 | >64 | 2.9 | 1500 | inhibit the proliferation | Inhibition of growth of DAOY (in words) [7]: dose dependent inhibition; Stability at acid pH (in words) [8]: stable at acid pH; MIC ([2]; 24 h): > 64 µg/mL; MIC ([2]; 48 h): > 64 µg/mL; MIC ([3]; 24 h): > 64 µg/mL; MIC ([3]; 48 h): > 64 µg/mL; Percent of Control, Observed ([9]; Compound 100 1 μM): 97.9 +/− 1.0% of Control; Percent of Control, Observed ([9]; Compound 100 5 μM): 52.5 +/− 2.9% of Control; activity at 1 µM ([9]; Homo sapiens, U373 MG, 168 h, Compound 100 1 uM, U373, 7 days (Table 3), read-out: Percent of Control, Observed): 78%
